According to ChEMBL document CHEMBL3870331, “Design, development of new synthetic methodology, and biological evaluation of substituted quinolines as new anti-tubercular leads” (Bioorg Med Chem Lett, 2016):

Assays:
[1] = tested on: Mycobacterium tuberculosis; assay: Antimycobacterial activity against Mycobacterium tuberculosis H37Rv ATCC 27294 measured after 28 days by MABA method; type: functional; details: H37Rv ATCC 27294, 672 h
[2] = Cytotoxicity against HEK293T cells assessed as inhibition of cell viability at 50 ug/ml after 72 hrs by MTT assay relative to control; type: toxicity, cell-based, HEK-293T; details: human, read-out: INH
[3] = Therapeutic index, ratio of compound cytotoxic activity for HEK293T cells to MIC99 for Mycobacterium tuberculosis H37Rv ATCC 27294; type: cell-based, HEK-293T; details: human, read-out: TI

Structure (SMILES)	MIC99 [1]	cytotoxicity at 72 h, 50 ug/ml [2]	selectivity ratio [3]
COc1ccc(NC(=O)c2c(C)nc3ccccc3c2-c2ccccc2)cc1	8.48 µM	35.2%	
Cc1nc2ccccc2c(-c2ccccc2)c1C(=O)Nc1ccncc1	18.4 µM	12.6%	
c1ccc(-c2c3c(nc4ccccc24)CCCCCC3)cc1	10.9 µM	31.1%	
c1ccc(-c2c3c(nc4ccccc24)CCCC3)cc1	48.2 µM		
Cc1nc2ccccc2c(-c2ccccc2)c1C(=O)Nc1ccccc1F	35.1 µM		
Cc1nc2ccccc2c(-c2ccccc2)c1C(=O)NCc1cccc(F)c1	33.8 µM		
Cc1nc2ccccc2c(-c2ccccc2)c1C(=O)NCc1cccc(Cl)c1	64.6 µM		
CCOC(=O)c1c(C)nc2ccccc2c1C	109 µM		
c1ccc(-c2c3c(nc4ccccc24)CCC3)cc1	25.5 µM	30%	
COC(=O)c1c(C)nc2ccc(Cl)cc2c1-c1ccccc1	80.2 µM		
CC1CC(=O)c2c(nc3ccccc3c2-c2ccccc2)C1 (stereo unspecified)	21.8 µM	28%	
NC(=O)c1cnccn1 [PYRAZINAMIDE]	6.25 mg/L		
Cc1ccccc1CNC(=O)c1c(C)nc2ccccc2c1-c1ccccc1	8.53 µM	20.6%	
c1ccc(-c2cc(-c3ccco3)nc3ccccc23)cc1	5.75 µM	34%	
Cc1nc2ccccc2c(-c2ccccc2)c1C(=O)Nc1ccc(F)cc1	16.8 µM	12.5%	
CC[C@@H](CO)NCCN[C@@H](CC)CO [ETHAMBUTOL]	1.56 mg/L		
c1ccc(-c2cc(-c3ccccc3)c3ccccc3n2)cc1	11.1 µM	18.1%	
Cc1nc2ccccc2c(-c2ccccc2)c1C(=O)Nc1ccc(Br)cc1	30.9 µM		
COc1ccccc1CNC(=O)c1c(C)nc2ccccc2c1-c1ccccc1	> 65.4 µM		
Cc1nc2ccc(Cl)cc2c(-c2ccccc2)c1C(=O)c1ccccc1	8.73 µM	26.1%	
NNC(=O)c1ccncc1 [ISONIAZID]	0.098 mg/L		
COC(=O)c1c(C)nc2ccccc2c1-c1ccccc1	45.1 µM	25.6%	
c1ccc(-c2c3c(nc4ccccc24)CCCCC3)cc1	45.7 µM		

Structure (SMILES)	MIC99 [1]	cytotoxicity at 72 h, 50 ug/ml [2]	selectivity ratio [3]
Cc1nc2ccccc2c(-c2ccccc2)c1C(=O)OC(C)(C)C	1.22 µM	13.6%	
Cc1nc2ccccc2c(-c2ccccc2)c1C(=O)NCc1ccccc1Cl	4.03 µM	13.6%	
CCOC(=O)c1c(C)nc2ccccc2c1-c1ccccc1	0.69 µM	25.6%	> 250
c1ccc(-c2cc(-c3cccs3)nc3ccccc23)cc1	21.8 µM	25.5%	
Cc1nc2ccccc2c(-c2ccccc2)c1C(=O)Nc1ccccc1Cl	33.5 µM		
Cc1nc2ccccc2c(-c2ccccc2)c1C(=O)NCc1ccc(C(C)(C)C)cc1	3.82 µM	35.6%	
Cc1nc2ccccc2c(-c2ccccc2)c1C(=O)Nc1ccc(Cl)cc1	17.5 µM	16.3%	
CO[C@H]1/C=C/O[C@@]2(C)Oc3c(C)c(O)c4c(O)c(c(/C=N/N5CCN(C)CC5)c(O)c4c3C2=O)NC(=O)/C(C)=C\C=C\[C@H](C)[C@H](O)[C@@H](C)[C@@H](O)[C@@H](C)[C@H](OC(C)=O)[C@@H]1C [RIFAMPIN]	0.197 mg/L		
Cc1nc2ccccc2c(-c2ccccc2)c1C(=O)Nc1ccccc1	9.23 µM	25.6%	
Cc1nc2ccccc2c(-c2ccccc2)c1C(=O)Nc1ccccc1OC(F)(F)F	29.6 µM		
O=C1CC(c2ccccc2)Cc2nc3ccccc3c(-c3ccccc3)c21 (stereo unspecified)	35.8 µM		
Cc1nc2ccccc2c(-c2ccccc2)c1C(=O)Nc1ccccn1	73.7 µM		
CC1(C)CC(=O)c2c(nc3ccccc3c2-c2ccccc2)C1	20.7 µM	22%	
CCOC(=O)c1c(C)nc2ccc(Cl)cc2c1-c1ccccc1	76.7 µM		
Cc1nc2ccccc2c(-c2ccccc2)c1C(=O)Nc1ccccc1Br	15 µM	15.6%	
CC(=O)c1c(C)nc2ccc(Cl)cc2c1-c1ccccc1	10.6 µM	19.9%	
CC(=O)c1c(C)nc2ccccc2c1-c1ccccc1	47.8 µM		
Cc1nc2ccccc2c(-c2ccccc2)c1C(=O)Nc1cccnc1Cl	16.7 µM	11.3%	
Cc1nc2ccccc2c(-c2ccccc2)c1C(=O)Nc1ccccc1I	3.36 µM	17.9%	
Cc1nc2ccccc2c(-c2ccccc2)c1C(=O)c1ccccc1	19.3 µM	22.1%	
Cc1nc2ccccc2c(-c2ccccc2)c1C(=O)NCc1ccccc1	70.9 µM		
O=C1CCCc2nc3ccccc3c(-c3ccccc3)c21	45.7 µM		
COc1ccccc1NC(=O)c1c(C)nc2ccccc2c1-c1ccccc1	67.9 µM		
